In PMC8560763, “Roles of metal ions in the selective inhibition of oncogenic variants of isocitrate dehydrogenase 1” (Communications Biology, 2021):
“And” between values parts separate entries of the source, which are not always exact repeats. Identical values can stand only once. Each block holds one compound with its values, some of them ahead of it.

Columns and labels:
wt IDH1 [1] = target: T1, wt IDH1 (Homo sapiens, UniProt O75874); assay: Absorbance assay (NADPH, 340 nm): kinetics of oxidative reaction (isocitrate to 2OG) by wt IDH1; assay type: biochemical
T1 construct: made in house; host or cells: Escherichia coli BL21(DE3) pLyS
Protocol: (§1) All experiments were performed in (at least) triplicate.
(§2) KM values were determined by varying concentrations of the substrate/cofactor under investigation while maintaining the concentrations of other components using standard conditions. […] Graphs were fitted using GraphPad Prism to obtain kinetic parameters.

wt IDH1 [2] = target: T1, wt IDH1; assay: CPMG-edited 1H NMR ligand binding, wt IDH1; conditions: without metal ions; DSF and NMR
Protocol: Additional solvent presaturation was applied for 2 s. The assay mixture contains 160 µL of a 50 µM solution of the compound of interest ± 10 mM metal chloride salts in 50 mM Tris-D11-HCl in 90% H2O/10% D2O at pH 7.5. […] Data were processed with the TopSpin 3.1 software.

wt IDH1 [3] = target: T1, wt IDH1; assay: Absorbance assay: effect of metal ions on catalysis and inhibition of wt IDH1; assay type: biochemical; conditions: for inhibition by metal ion: wt IDH1, metal ions 10 mM in the presence of 10 mM Mg^2+
wt IDH1 [4] = target: T1, wt IDH1; assay: Differential scanning fluorimetry (DSF) thermal shift, wt IDH1; assay type: binding; conditions: 50 mM Tris-HCl, pH 7.5; for thermal stabilisation (shift in Tm): wt IDH1, divalent metal ions (5 mM); for thermal stabilisation by cosubstrates: wt IDH1, 0.125—4 mM
Protocol: Thermal shift experiments were carried out using Sypro Orange dye and a CFX96 Touch^TM Real-Time PCR Detection System (Bio-Rad)[69]. […] The standard assay buffer contains 50 mM Tris-HCl at pH 7.5. Various concentrations of substrates were mixed with IDH1 for thermal stabilisation studies. […] Bio-Rad CFX Manager was used to determine the melting temperature, Tm.

wt IDH1 [5] = target: T1, wt IDH1; assay: Absorbance assay: kinetics of reductive reaction (2OG to isocitrate) by wt IDH1; assay type: biochemical; conditions: Fig. S2f
Protocol: as §1, §2

[6] = wt IDH1, oxidative reaction with Mn^2+ (10 mM MnCl2)

T1 sequence (O75874 2-414): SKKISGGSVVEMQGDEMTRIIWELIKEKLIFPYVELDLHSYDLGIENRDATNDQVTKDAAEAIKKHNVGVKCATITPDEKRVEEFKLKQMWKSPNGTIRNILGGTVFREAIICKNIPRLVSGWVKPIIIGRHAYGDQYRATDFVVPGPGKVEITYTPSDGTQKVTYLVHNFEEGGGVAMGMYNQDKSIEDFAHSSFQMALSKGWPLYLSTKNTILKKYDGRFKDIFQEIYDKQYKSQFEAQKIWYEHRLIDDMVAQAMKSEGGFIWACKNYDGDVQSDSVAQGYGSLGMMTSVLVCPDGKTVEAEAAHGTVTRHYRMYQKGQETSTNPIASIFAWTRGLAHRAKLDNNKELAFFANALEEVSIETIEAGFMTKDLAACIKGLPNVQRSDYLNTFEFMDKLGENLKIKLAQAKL

thermal stabilisation by cosubstrates (wt IDH1 [4]): stabilise
Velocity (wt IDH1 [5]; [NADPH] 500 μM): 0.1648 µM/s and 0.2053 µM/s
Compound: NC(=O)C1=CN([C@@H]2O[C@H](COP(=O)(O)OP(=O)(O)OC[C@H]3O[C@@H](n4cnc5c(N)ncnc54)[C@H](OP(=O)(O)O)[C@@H]3O)[C@@H](O)[C@H]2O)C=CC1 [NADPH]
Velocity (wt IDH1 [5]; [NADPH] 31.25 μM): 0.06247 µM/s and 0.06738 µM/s and 0.04685 µM/s
Velocity (wt IDH1 [5]; [NADPH] 62.5 μM): 0.08774 µM/s and 0.07774 µM/s and 0.04633 µM/s
Velocity (wt IDH1 [5]; [NADPH] 250 μM): 0.1446 µM/s and 0.1585 µM/s and 0.1383 µM/s

Velocity (wt IDH1 [1]; Fig. S3b, MnCl2 as metal, [NADP+] 300 μM): 0.3651 µM/s
thermal stabilisation by cosubstrates (wt IDH1 [4]): stabilise
Compound: NC(=O)c1ccc[n+](C2OC(COP(=O)(O)OP(=O)([O-])OCC3OC(n4cnc5c(N)ncnc54)C(OP(=O)(O)O)C3O)C(O)C2O)c1 (stereo not shown) [NADP^+]
Velocity (wt IDH1 [1]; Fig. S2b, [NADP+] 9.375 μM): 0.05756 µM/s and 0.05177 µM/s and 0.06247 µM/s
Velocity (wt IDH1 [1]; Fig. S2b, [NADP+] 18.75 μM): 0.1158 µM/s and 0.09809 µM/s and 0.09195 µM/s
Velocity (wt IDH1 [1]; Fig. S2b, [NADP+] 37.5 μM): 0.1572 µM/s and 0.1441 µM/s and 0.152 µM/s
Velocity (wt IDH1 [1]; Fig. S2b, [NADP+] 75 μM): 0.1869 µM/s and 0.1658 µM/s and 0.2058 µM/s
Velocity (wt IDH1 [1]; Fig. S2b, [NADP+] 150 μM): 0.2085 µM/s and 0.1992 µM/s and 0.219 µM/s
Velocity (wt IDH1 [1]; Fig. S2b, [NADP+] 300 μM): 0.2511 µM/s and 0.2272 µM/s and 0.239 µM/s
Velocity (wt IDH1 [1]; Fig. S2b, [NADP+] 600 μM): 0.245 µM/s and 0.2229 µM/s and 0.192 µM/s
Velocity (wt IDH1 [1]; Fig. S2b, [NADP+] 1200 μM): 0.2522 µM/s and 0.2318 µM/s and 0.2402 µM/s
Velocity (wt IDH1 [1]; Fig. S2b, [NADP+] 2400 μM): 0.2325 µM/s and 0.2464 µM/s and 0.2378 µM/s
Velocity (wt IDH1 [1]; Fig. S3b, MnCl2 as metal, [NADP+] 2.34375 μM): 0.01474 µM/s and 0.01079 µM/s and 0.008423 µM/s
Velocity (wt IDH1 [1]; Fig. S3b, MnCl2 as metal, [NADP+] 4.6875 μM): 0.04185 µM/s and 0.03843 µM/s and 0.02737 µM/s
Velocity (wt IDH1 [1]; Fig. S3b, MnCl2 as metal, [NADP+] 9.375 μM): 0.08765 µM/s and 0.07107 µM/s and 0.0637 µM/s
Velocity (wt IDH1 [1]; Fig. S3b, MnCl2 as metal, [NADP+] 18.75 μM): 0.1629 µM/s and 0.1316 µM/s and 0.1234 µM/s
Velocity (wt IDH1 [1]; Fig. S3b, MnCl2 as metal, [NADP+] 37.5 μM): 0.2419 µM/s and 0.1971 µM/s and 0.1732 µM/s
Velocity (wt IDH1 [1]; Fig. S3b, MnCl2 as metal, [NADP+] 75 μM): 0.3032 µM/s and 0.278 µM/s and 0.2851 µM/s
Velocity (wt IDH1 [1]; Fig. S3b, MnCl2 as metal, [NADP+] 150 μM): 0.3353 µM/s and 0.3245 µM/s and 0.3419 µM/s

binding to wt IDH1 (wt IDH1 [2]): bind weakly
Compound: O=C(O)CNC(=O)C(=O)O [NOG, N-oxalylglycine]

inhibition by metal ion (wt IDH1 [3]): no effect
Compound: [Na+] [Na^+]

inhibition by metal ion (wt IDH1 [3]): inhibiting
Compound: [Cl-].[Cl-].[Sr+2] [Sr^2+, SrCl2]

inhibition by metal ion (wt IDH1 [3]): inhibitory
Compound: [Cl-].[Cl-].[Zn+2] [Zn^2+, ZnCl2]

The remaining lines, values behind:

Compound: O=C(O)CC(C(=O)O)C(O)C(=O)O (racemic) [DL-isocitrate]
Km (wt IDH1 [1]; wt IDH1, oxidative reaction with Mg^2+ (10 mM MgCl2)): 38 ± 6 µM
Km (wt IDH1 [1]; [6]): 35 ± 4 µM

Compound: O=C(O)CCC(O)C(=O)O (stereo not shown) [2HG, 2-hydroxyglutarate]
binding to wt IDH1 (wt IDH1 [2]): not observed to bind

Compound: [Ba+2].[Cl-].[Cl-] [Ba^2+, BaCl2]
inhibition by metal ion (wt IDH1 [3]): inhibiting

Compound: [Ca+2].[Cl-].[Cl-] [Ca^2+, CaCl2]
inhibition by metal ion (wt IDH1 [3]): inhibiting
thermal stabilisation (shift in Tm) (wt IDH1 [4]): 3.2 °C

Compound: [Cl][Cd][Cl] [Cd^2+, CdCl2]
inhibition by metal ion (wt IDH1 [3]): inhibitory

Compound: [Cl-].[Cl-].[Co+2] [Co^2+, CoCl2]
inhibition by metal ion (wt IDH1 [3]): inhibitory

Compound: [Cl-].[Cs+] [Cs^+]
inhibition by metal ion (wt IDH1 [3]): no effect

Compound: [Cl-].[K+] [K^+]
inhibition by metal ion (wt IDH1 [3]): no effect

Compound: [Cl-].[Li+] [Li^+]
inhibition by metal ion (wt IDH1 [3]): no effect

Compound: [Cl][Mn][Cl] [MnCl2]
Velocity (wt IDH1 [1]; Fig. S3c, [MnCl2] 1.16415 μM): 0.08423 µM/s and 0.08186 µM/s and 0.1169 µM/s
Velocity (wt IDH1 [1]; Fig. S3c, [MnCl2] 1.86265 μM): 0.2269 µM/s and 0.1979 µM/s and 0.204 µM/s
Velocity (wt IDH1 [1]; Fig. S3c, [MnCl2] 4.76837 μM): 0.3206 µM/s and 0.2772 µM/s and 0.338 µM/s
Velocity (wt IDH1 [1]; Fig. S3c, [MnCl2] 7.62939 μM): 0.3506 µM/s and 0.2861 µM/s and 0.3632 µM/s
Velocity (wt IDH1 [1]; Fig. S3c, [MnCl2] 12.207 μM): 0.3785 µM/s and 0.3498 µM/s
Velocity (wt IDH1 [1]; Fig. S3c, [MnCl2] 19.5312 μM): 0.3561 µM/s and 0.3846 µM/s
Velocity (wt IDH1 [1]; Fig. S3c, [MnCl2] 31.25 μM): 0.3922 µM/s and 0.3424 µM/s and 0.3875 µM/s
Velocity (wt IDH1 [1]; Fig. S3c, [MnCl2] 50 μM): 0.4096 µM/s and 0.3893 µM/s and 0.3938 µM/s
kcat (wt IDH1 [1]; wt IDH1, oxidative reaction with Mn^2+): 81 ± 11 s⁻¹
Km (wt IDH1 [1]; [6]): 2 ± 0.3 µM
Vmax (wt IDH1 [1]; [6]): 416 ± 13 nM/s
effect of metal ion on catalysis (wt IDH1 [3]; wt IDH1, metal ions 10 mM): promoted
thermal stabilisation (shift in Tm) (wt IDH1 [4]): 2.9 °C

Compound: [Cl][Ni][Cl] [Ni^2+, NiCl2]
inhibition by metal ion (wt IDH1 [3]): inhibitory
